In US11945806B2, “Stabilization of amyloidogenic immunoglobulin light chains” (The Scripps Research Institute, priority 2019, dated 2024):

Target: WIL-FL (Homo sapiens, UniProt P01721)
Experiment: Unlabeled LC Protease Sensitivity Assay (proteinase K)
Format: biochemical
Conditions: small molecule 10 μM, WIL-FL 5 μM, proteinase K 50 nM, 2 hours at 37° C.
Procedure: Unlabeled LC Protease Sensitivity Assay. WIL-FL (5 μM) in phosphate-buffered saline (PBS, pH 7.4)+0.02% Pluronic F-127 was incubated with proteinase K (50 nM) with small molecule (10 μM) in 1% DMSO vehicle, or vehicle alone. After 2 hours at 37° C., reactions were quenched with 2 mM phenylmethyl sulfonyl fluoride in methanol and centrifuged at 14,000 rpm for 2 minutes. Remaining WIL-FL was quantified by injecting 10 μL of the supernatant into a Waters Acquity H-Class Bio-UPLC (ultra performance liquid chromatography) instrument equipped with a BEH200 analytical size-exclusion column (1.7 μm, 4.6×150 mm) under isocratic conditions (0.2 mL/min, PBS+1 mM EDTA, 2400 psi backpressure, 15 min), monitoring absorbance at 280 nm. Activity of each compound is given as fold protection from protease=(A_compound−A_vehicle)/(A_no_protease−A_vehicle), where each “A” corresponds to peak integration of the respective treatment.

Row | Compound | Protection (fold protection of LC from protease)
1 | Cc1cc(=O)oc2cc(NCCCc3ccccc3)ccc12 [Compound 30, 4-methyl-7-((3-phenylpropyl)amino)-2H-chromen-2-one] | A (A < 0.3))
2 | CCN(CC)c1ccc2c(C)cc(=O)n(C)c2c1 [Compound 52, 7-(diethylamino)-1,4-dimethylquinolin-2(1H)-one] | A (A < 0.3))
3 | CCN(CC)c1ccc2c(C)c(CCOC(=O)N3CCN(c4cc(C)no4)CC3)c(=O)oc2c1 [Compound 113, 2-(7-(diethylamino)-4-methyl-2-oxo-2H-chromen-3-yl)ethyl 4-(3-methylisoxazol-5-yl)piperazine-1-carboxylate] | A (A < 0.3))
4 | CCN(CC)c1ccc2c(C)c(CCNC(=O)OCc3cccnc3)c(=O)oc2c1 [Compound 100, Pyridin-3-ylmethyl (2-(7-(diethylamino)-4-methyl-2-oxo-2H-chromen-3-yl)ethyl)carbamate] | A (A < 0.3))
5 | CCN(CC)c1ccc2c(C)c(CCC(=O)NCCCN(C)C)c(=O)oc2c1 [Compound 68] | A (A < 0.3))
6 | CCOC(=O)N1CCC(NC(=O)OCCc2c(C)c3ccc(N(CC)CC)cc3oc2=O)CC1 [Compound 105, Ethyl 4-(((2-(7-(diethylamino)-4-methyl-2-oxo-2H-chromen-3-yl)ethoxy)carbonyl)amino)piperidine-1-carboxylate] | B (3 ≤ B < 0.6)
7 | CCc1cc(=O)oc2cc(N(CC)CC)ccc12 [Compound 136, 7-(diethylamino)-4-ethyl-2H-chromen-2-one] | A (A < 0.3))
8 | CCN(CC)c1ccc2c(C)c(CCOC(=O)NCCc3ccccn3)c(=O)oc2c1 [Compound 82, 2-(7-(diethylamino)-4-methyl-2-oxo-2H-chromen-3-yl)ethyl (2-(pyridin-2-yl)ethyl)carbamate] | A (A < 0.3))
9 | Cc1cc(=O)oc2cc(OC(C)c3c(F)cccc3F)ccc12 (stereo not drawn) [Compound 51, 7-(1-(2,6-difluorophenyl)ethoxy)-4-methyl-2H-chromen-2-one] | A (A < 0.3))
10 | CCN(CC)c1ccc2c(C)c(CCOC(=O)NCc3cccc(-c4ncc[nH]4)c3)c(=O)oc2c1 [Compound 153, 2-(7-(diethylamino)-4-methyl-2-oxo-2H-chromen-3-yl)ethyl (3-(1H-imidazol-2-yl)benzyl)carbamate] | C (C ≥ 0.6)
11 | CCN(CC)c1ccc2c(C)c(CCN3C(=O)NC4(CCN(S(=O)(=O)CC)C4)C3=O)c(=O)oc2c1 (stereo not drawn) [Compound 203, 3-(2-(7-(diethylamino)-4-methyl-2-oxo-2H-chromen-3-yl)ethyl)-7-(ethylsulfonyl)-1,3,7-triazaspiro[4.4]nonane-2,4-dione] | C (C ≥ 0.6)
12 | CCN(CC)c1ccc2c(C)c(CCOC(=O)NCc3cccc(-c4cccnc4)c3)c(=O)oc2c1 [Compound 161, 2-(7-(diethylamino)-4-methyl-2-oxo-2H-chromen-3-yl)ethyl (3-(pyridin-3-yl)benzyl)carbamate] | C (C ≥ 0.6)
13 | Cc1cc(=O)oc2cc(OC(C)c3ccc(F)cc3)ccc12 (stereo not drawn) [Compound 44, 7-(1-(4-fluorophenyl)ethoxy)-4-methyl-2H-chromen-2-one] | A (A < 0.3))
14 | CCN(CC)c1ccc2c(C)c(CC(=O)NC)c(=O)oc2c1 [Compound 60, 2-(7-(diethylamino)-4-methyl-2-oxo-2H-chromen-3-yl)-N-methylacetamide] | A (A < 0.3))
15 | CCN(CC)c1ccc2c(C)c(CCOC(=O)N3CCN(c4cnccn4)CC3)c(=O)oc2c1 [Compound 109, 2-(7-(diethylamino)-4-methyl-2-oxo-2H-chromen-3-yl)ethyl 4-(pyrazin-2-yl)piperazine-1-carboxylate] | A (A < 0.3))
16 | Cc1ccccc1C(C)Oc1ccc2c(C)cc(=O)oc2c1 (stereo not drawn) [Compound 45, 4-methyl-7-(1-(o-tolyl)ethoxy)-2H-chromen-2-one] | A (A < 0.3))
17 | Cc1c(CN2CCOCC2)c(=O)oc2cc(OC(C)c3ccccc3)ccc12 (stereo not drawn) [Compound 152, 4-methyl-3-(morpholinomethyl)-7-(1-phenylethoxy)-2H-chromen-2-one] | B (3 ≤ B < 0.6)
18 | CCN(CC)c1ccc2c(C)c(CCOC(=O)NCc3ccc(C(=O)O)cc3)c(=O)oc2c1 [Compound 119, 4-((((2-(7-(diethylamino)-4-methyl-2-oxo-2H-chromen-3-yl)ethoxy)carbonyl)amino)methyl)benzoic acid] | B (3 ≤ B < 0.6)
19 | CCN(CC)c1ccc2c(C)c(CCOC(=O)NCc3ccc4[nH]ccc4c3)c(=O)oc2c1 [Compound 137, 2-(7-(diethylamino)-4-methyl-2-oxo-2H-chromen-3-yl)ethyl ((1H-indol-5-yl)methyl)carbamate] | B (3 ≤ B < 0.6)
20 | CCN(CC)c1ccc2c(C)c(CCN3C(=O)NC4(CCN(c5ncc(C(F)(F)F)cn5)C4)C3=O)c(=O)oc2c1 (stereo not drawn) [Compound 195, 3-(2-(7-(diethylamino)-4-methyl-2-oxo-2H-chromen-3-yl)ethyl)-7-(5-(trifluoromethyl)pyrimidin-2-yl)-1,3,7-triazaspiro[4.4]nonane-2,4-dione] | A (A < 0.3))
21 | CCN(CC)c1ccc2c(C)c(CC(=O)NCCN(C)C)c(=O)oc2c1 [Compound 58, 2-(7-(diethylamino)-4-methyl-2-oxo-2H-chromen-3-yl)-N-(2-(dimethylamino)ethyl)acetamide] | A (A < 0.3))
22 | Cc1cc(=O)oc2cc(OCCN)ccc12 [Compound 34, 7-(2-aminoethoxy)-4-methyl-2H-chromen-2-one] | A (A < 0.3))
23 | CCN(CC)c1ccc2c(C)c(CCOC(=O)NCCNc3ccccn3)c(=O)oc2c1 [Compound 132, 2-(7-(diethylamino)-4-methyl-2-oxo-2H-chromen-3-yl)ethyl (2-(pyridin-2-ylamino)ethyl)carbamate] | C (C ≥ 0.6)
24 | CCN(CC)c1ccc2c(C)c(CCN3C(=O)NC4(CCN(C(=O)c5ncc[nH]5)CC4)C3=O)c(=O)oc2c1 [Compound 177, 3-(2-(7-(diethylamino)-4-methyl-2-oxo-2H-chromen-3-yl)ethyl)-8-(1H-imidazole-2-carbonyl)-1,3,8-triazaspiro[4.5]decane-2,4-dione] | C (C ≥ 0.6)

Further lines, results first:

Row | Protection (fold protection of LC from protease) | Compound
25 | A (A < 0.3)) | C=CCCN(C)c1ccc2c(C)cc(=O)oc2c1 [Compound 256, 7-(but-3-en-1-yl(methyl)amino)-4-methyl-2H-chromen-2-one]
26 | A (A < 0.3)) | Cc1cc(=O)oc2cc(NCC#N)ccc12 [Compound 269, 2-((4-methyl-2-oxo-2H-chromen-7-yl)amino)acetonitrile]
27 | A (A < 0.3)) | C#CCN(CC=C)c1ccc2c(C)cc(=O)oc2c1 [Compound 259, 7-(allyl(prop-2-yn-1-yl)amino)-4-methyl-2H-chromen-2-one]
28 | B (3 ≤ B < 0.6) | CCN(CC)c1ccc2c(C)c(CCNC(=O)NCc3cccc(C(N)=O)c3)c(=O)oc2c1 [Compound 298, 3-((3-(2-(7-(diethylamino)-4-methyl-2-oxo-2H-chromen-3-yl)ethyl)ureido)methyl)benzamide]
29 | A (A < 0.3)) | Cc1cc(=O)oc2cc(C(=O)Nc3cc(Cl)c(O)c(Cl)c3)ccc12 [Compound 229, N-(3,5-dichloro-4-hydroxyphenyl)-4-methyl-2-oxo-2H-chromene-7-carboxamide]
30 | A (A < 0.3)) | Cc1cc(=O)oc2cc(C(=O)Nc3ccc4ccccc4n3)ccc12 [Compound 233, 4-methyl-2-oxo-N-(quinolin-2-yl)-2H-chromene-7-carboxamide]
31 | A (A < 0.3)) | C#CCN(CCCF)c1ccc2c(C)cc(=O)oc2c1 [Compound 264, 7-((3-fluoropropyl)(prop-2-yn-1-yl)amino)-4-methyl-2H-chromen-2-one]
32 | A (A < 0.3)) | CCN(CC)c1ccc2c(CCCOC(=O)NCc3cccc(-c4c[nH]cn4)c3)cc(=O)oc2c1 [Compound 304, 3-(7-(diethylamino)-2-oxo-2H-chromen-4-yl)propyl (3-(1H-imidazol-4-yl)benzyl)carbamate]
33 | A (A < 0.3)) | CCN(c1ccc2c(C)cc(=O)oc2c1)C(C)C [Compound 274, 7-(ethyl(isopropyl)amino)-4-methyl-2H-chromen-2-one]
34 | A (A < 0.3)) | C=CCNc1ccc2c(C)cc(=O)oc2c1 [Compound 240, 7-(allylamino)-4-methyl-2H-chromen-2-one]
35 | B (3 ≤ B < 0.6) | CCN(CC)c1ccc2c(C)c(CCNC(=O)NCc3ccc4ccccc4n3)c(=O)oc2c1 [Compound 293, 1-(2-(7-(diethylamino)-4-methyl-2-oxo-2H-chromen-3-yl)ethyl)-3-(quinolin-2-ylmethyl)urea]
36 | C (C ≥ 0.6) | CCN(CC)c1ccc2c(C)c(CCOC(=O)NCc3cccc(-c4ccccc4O)c3)c(=O)oc2c1 [Compound 218, 2-(7-(diethylamino)-4-methyl-2-oxo-2H-chromen-3-yl)ethyl ((2′-hydroxy-[1,1′-biphenyl]-3-yl)methyl)carbamate]
